In ChEMBL document CHEMBL1131284, “Hydroxamate-based inhibitors of low affinity IgE receptor (CD23) processing” (Bioorg Med Chem Lett, 1998):

The molecules below were run against T1, Interstitial collagenase (Homo sapiens, UniProt P03956) (assay: Inhibitory activity towards human recombinant fibroblast collagenase).
T1 sequence (P03956 whole entry): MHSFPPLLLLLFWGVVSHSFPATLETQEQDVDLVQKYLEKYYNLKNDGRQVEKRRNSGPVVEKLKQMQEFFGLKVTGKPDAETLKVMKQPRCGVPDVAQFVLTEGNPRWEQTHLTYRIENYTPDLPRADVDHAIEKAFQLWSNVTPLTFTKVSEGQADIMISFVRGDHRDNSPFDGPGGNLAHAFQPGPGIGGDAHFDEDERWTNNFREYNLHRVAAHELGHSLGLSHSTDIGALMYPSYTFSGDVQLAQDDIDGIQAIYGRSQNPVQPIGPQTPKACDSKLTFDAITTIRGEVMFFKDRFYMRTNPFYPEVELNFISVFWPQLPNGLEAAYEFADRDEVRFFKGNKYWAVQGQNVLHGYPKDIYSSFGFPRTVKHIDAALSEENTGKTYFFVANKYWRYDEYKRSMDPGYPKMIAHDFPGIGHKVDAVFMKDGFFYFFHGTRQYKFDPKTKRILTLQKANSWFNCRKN

IC50	Structure (SMILES)
> 10 µM	O=C(C[C@@H](Cc1ccc2ccccc2c1)C(=O)N[C@@H](Cc1ccccc1)C(=O)NCc1ccccc1)NO
> 10 µM	O=C(CCC(=O)N[C@@H](Cc1ccccc1)C(=O)NCc1ccccc1)NO
1.9 µM	CC(C)S[C@H](CC(=O)NO)C(=O)N[C@@H](Cc1ccccc1)C(=O)NCc1ccccc1
1.5 µM	O=C(C[C@H](C(=O)N[C@@H](Cc1ccccc1)C(=O)NCc1ccccc1)C1CCCCC1)NO
4.6 µM	O=C(C[C@@H](CC1CCCCC1)C(=O)N[C@@H](Cc1ccccc1)C(=O)NCc1ccccc1)NO

More lines, now with the values behind:

Structure (SMILES)	IC50
CC(C)C[C@@H](CC(=O)NO)C(=O)N[C@@H](Cc1ccccc1)C(=O)NCc1ccccc1	> 10 µM
O=C(C[C@@H](CCc1ccccc1)C(=O)N[C@@H](Cc1ccccc1)C(=O)NCc1ccccc1)NO	4.1 µM
C[C@H](CC(=O)NO)C(=O)N[C@@H](Cc1ccccc1)C(=O)NCc1ccccc1	> 10 µM
O=C(C[C@@H](Cc1ccccc1)C(=O)N[C@@H](Cc1ccccc1)C(=O)NCc1ccccc1)NO	7 µM
O=C(C[C@H](C(=O)N[C@@H](Cc1ccccc1)C(=O)NCc1ccccc1)c1ccccc1)NO	17 µM
O=C(C[C@H](C(=O)N[C@@H](Cc1ccccc1)C(=O)NCc1ccccc1)c1ccc(-c2ccccc2)cc1)NO	> 10 µM
O=C(C[C@@H](CC1CCCC1)C(=O)N[C@@H](Cc1ccccc1)C(=O)NCc1ccccc1)NO	0.02 µM
O=C(C[C@H](C(=O)N[C@@H](Cc1ccccc1)C(=O)NCc1ccccc1)c1cccc2ccccc12)NO	> 10 µM
CN(C)C[C@H](CC(=O)NO)C(=O)N[C@@H](Cc1ccccc1)C(=O)NCc1ccccc1	> 10 µM
O=C(C[C@@H](CCC1CCCCC1)C(=O)N[C@@H](Cc1ccccc1)C(=O)NCc1ccccc1)NO	> 10 µM
CC(C)C[C@H](CC(=O)NO)C(=O)N[C@@H](Cc1ccccc1)C(=O)NCc1ccccc1	0.03 µM
